{
  "source": "patent US20250082717A1",
  "about": "“COMPOSITIONS FOR TREATING KIDNEY DISEASE” (RHYTHM PHARMACEUTICALS, INC., priority 2018, published 2025)",
  "key": {"[1]": {"tested_on": "BBS10^−/− mice on high-fat/high-glucose diet", "assay": "Escalating setmelanotide dosing study over 10 days, plasma leptin by ELISA", "format": "in vivo", "settings": "obese BBS10^−/− mice on HF/HG diet; escalating doses 0.05-1.25 mg/kg over 10 days; disproportionate from body weight loss", "experimental": "(§1) In order to assess the effect of setmelanotide on plasma leptin levels disproportionate from body weight loss, BBS10^−/− and wild type mice were fed a high fat/high glucose diet from weaning and body weight assessed on a weekly basis. At four months of age, mice were transferred to metabolic cages and acclimated for 3 days. An escalating setmelanotide dosing study over 10-days was conducted in accordance with regimen shown below in Table 1:\n(§2) At the completion of the study, mice were sacrificed and blood and kidney collected for analysis of circulating leptin concentration and IL-23 mRNA expression, respectively. Plasma leptin concentrations were determined using a leptin ELISA kit (Catalog: #: EZML-82K, Millipore, Billerica, Massachusetts, USA). For analysis of renal IL-23 expression messenger RNA was extracted from tissue samples using TRIzol® reagent (#15596-018, Life Technologies, USA). […] The real-time quantitative PCR reaction was performed in a C1000™ thermocycler (CFX96, Real-Time System, BioRad, USA) using SYBR® Green. […] Results were analyzed with the CFX Manager™ software (BioRad, USA). Gene expression quantification was assessed by reporting measured levels relative to Gapdh expression in each separate sample."}, "[2]": {"tested_on": "BBS10^−/− mice on high-fat/high-glucose diet", "assay": "Escalating setmelanotide dosing study over 10 days, renal IL-23 mRNA expression by real-time quantitative PCR", "format": "in vivo", "settings": "obese BBS10^−/− mice on HF/HG diet; escalating doses 0.05-1.25 mg/kg over 10 days; relative to Gapdh", "experimental": "as §1, §2"}, "[3]": {"settings": "clinical trials (Chen et al. J. Clin. Endocrinol. Metab. 2015); cited from earlier work"}, "BBS10^−/− mice": {"tested_on": "BBS10^−/− mice", "assay": "Setmelanotide daily for one week, body weight and plasma and urine biomarker levels", "format": "in vivo", "experimental": "In order to assess the effect of setmelanotide on body weight and the levels of certain biomarkers, BBS10^−/− mice were administered setmelanotide (1.25 mg/kg) daily for one week. […] However, setmelanotide treatment did result in an increase in urine calcium levels as well as an increase in urine creatine levels (FIG. 4).\nAdditional studies in these mice entailed measurement of blood plasma levels of the biomarkers leptin and adiponectin after treatment with setmelanotide (1.25 mg/kg). […] Further, the leptin: adiponectin ration was decreased in setmelanotide treated mice."}},
  "note": "“Also recorded” adds a separate entry of the source.",
  "data": [
    {"smiles": "CC(=O)N[C@@H](CCCNC(=N)N)C(=O)N[C@H]1CSSC[C@@H](C(N)=O)NC(=O)[C@H](Cc2c[nH]c3ccccc23)NC(=O)[C@H](CCCNC(=N)N)NC(=O)[C@@H](Cc2ccccc2)NC(=O)[C@H](Cc2cnc[nH]2)NC(=O)[C@@H](C)NC1=O", "note": "[setmelanotide, Ac-Arg-c (Cys-D-Ala-His-D-Phe-Arg-Trp-Cys)-NH2]", "values": [
      {"measurement": "plasma leptin levels", "setting": "[1]", "result": "lowers; also recorded: decrease"},
      {"measurement": "renal IL-23 mRNA expression", "setting": "[2]", "result": "lowers; also recorded: normalization"},
      {"measurement": "effect on blood pressure", "setting": "[3]", "result": "has not been shown to adversely affect blood pressure"},
      {"measurement": "body weight", "setting": "BBS10^−/− mice; 1.25 mg/kg daily for one week", "result": "Lowered"},
      {"measurement": "urine calcium levels", "setting": "BBS10^−/− mice; 1.25 mg/kg daily for one week", "result": "increase"},
      {"measurement": "urine creatine levels", "setting": "BBS10^−/− mice; 1.25 mg/kg daily for one week, FIG. 4", "result": "increase"},
      {"measurement": "blood plasma levels of leptin", "setting": "BBS10^−/− mice; 1.25 mg/kg, effect not seen in vehicle and pair-fed mice, FIG. 5A", "result": "decreasing levels"},
      {"measurement": "blood plasma levels of adiponectin", "setting": "BBS10^−/− mice; 1.25 mg/kg, effect not seen in vehicle and pair-fed mice, FIG. 5B", "result": "increased levels"},
      {"measurement": "leptin: adiponectin ration", "setting": "BBS10^−/− mice; 1.25 mg/kg, effect not seen in vehicle and pair-fed mice, FIG. 5C", "result": "decreased"}
    ]}
  ]
}
